Measurements: ChEMBL document CHEMBL1137136, “Change in liver and plasma ceramides during D-galactosamine-induced acute hepatic injury by LC-MS/MS” (2004)
Several values for one entry are separate records, joined by “and”; a condition that tells them apart may be missing. Identical values can stand only once.

Legend:
Type in all cases: functional
Rattus norvegicus [1] = assay: Concentration of C22:2 ceramide in plasma of D-galactosamine treated rats after 18 hr at dose of 1 g/kg intraperitoneally
Rattus norvegicus [2] = assay: Concentration of C18:0 ceramide in liver of D-galactosamine treated rats after 18 hr at dose of 1 g/kg intraperitoneally
Rattus norvegicus [3] = assay: Concentration of C24:0 ceramide in liver of D-galactosamine treated rats after 18 hr at dose of 1 g/kg intraperitoneally
Rattus norvegicus [4] = assay: Plasma GOT level was observed after 24 hr of D-galactosamine administration at 1 g/kg intraperitoneally
Rattus norvegicus [5] = assay: Concentration of C16:0 ceramide in plasma of D-galactosamine treated rats after 18 h at dose of 1 g/kg intraperitoneally
Rattus norvegicus [6] = assay: Concentration of C22:0 ceramide in liver of D-galactosamine treated rats after 18 hr at dose of 1 g/kg intraperitoneally
Rattus norvegicus [7] = assay: Plasma GPT level was observed after 24 hr of D-galactosamine administration at 1 g/kg intraperitoneally
Rattus norvegicus [8] = assay: Concentration of C24:0 ceramide in plasma of D-galactosamine treated rats after 18 hr at dose of 1 g/kg intraperitoneally
Rattus norvegicus [9] = assay: Concentration of C24:1 ceramide in plasma of D-galactosamine treated rats after 18 hr at dose of 1 g/kg intraperitoneally
Rattus norvegicus [10] = assay: Concentration of C24:0 ceramide in plasma of D-galactosamine treated rats after 24 hr at dose of 1 g/kg intraperitoneally
Rattus norvegicus [11] = assay: Concentration of C18:0 ceramide in plasma of D-galactosamine treated rats after 18 h at dose of 1 g/kg intraperitoneally
Rattus norvegicus [12] = assay: Concentration of C20:0 ceramide in liver of D-galactosamine treated rats after 24 hr at dose of 1 g/kg intraperitoneally
Rattus norvegicus [13] = assay: Concentration of C24:0 ceramide in liver of D-galactosamine treated rats after 24 hr at dose of 1 g/kg intraperitoneally
Rattus norvegicus [14] = assay: Concentration of C18:0 ceramide in liver of D-galactosamine treated rats after 24 hr at dose of 1 g/kg intraperitoneally
Rattus norvegicus [15] = assay: Plasma GPT level was observed after 18 hr of D-galactosamine administration at 1 g/kg intraperitoneally
Rattus norvegicus [16] = assay: Concentration of C22:0 ceramide in liver of D-galactosamine treated rats after 24 hr at dose of 1 g/kg intraperitoneally
Rattus norvegicus [17] = assay: Concentration of C22:2 ceramide in plasma of D-galactosamine treated rats after 24 hr at dose of 1 g/kg intraperitoneally
Rattus norvegicus [18] = assay: Concentration of C22:1 ceramide in plasma of D-galactosamine treated rats after 18 hr at dose of 1 g/kg intraperitoneally
Rattus norvegicus [19] = assay: Concentration of C22:1 ceramide in liver of D-galactosamine treated rats after 18 hr at dose of 1 g/kg intraperitoneally
Rattus norvegicus [20] = assay: Concentration of C18:0 ceramide in plasma of D-galactosamine treated rats after 24 hr at dose of 1 g/kg intraperitoneally
Rattus norvegicus [21] = assay: Concentration of C24:1 ceramide in liver of D-galactosamine treated rats after 18 hr at dose of 1 g/kg intraperitoneally
Rattus norvegicus [22] = assay: Concentration of C24:2 ceramide in liver of D-galactosamine treated rats after 24 hr at dose of 1 g/kg intraperitoneally
Rattus norvegicus [23] = assay: Concentration of C24:1 ceramide in plasma of D-galactosamine treated rats after 24 hr at dose of 1 g/kg intraperitoneally
Rattus norvegicus [24] = assay: Concentration of C22:2 ceramide in liver of D-galactosamine treated rats after 18 hr at dose of 1 g/kg intraperitoneally
Rattus norvegicus [25] = assay: Concentration of C24:1 ceramide in liver of D-galactosamine treated rats after 24 hr at dose of 1 g/kg intraperitoneally
Rattus norvegicus [26] = assay: Concentration of C22:1 ceramide in liver of D-galactosamine treated rats after 24 hr at dose of 1 g/kg intraperitoneally
Rattus norvegicus [27] = assay: Concentration of C20:0 ceramide in plasma of D-galactosamine treated rats after 18 hr at dose of 1 g/kg intraperitoneally
Rattus norvegicus [28] = assay: Concentration of C16:0 ceramide in plasma of D-galactosamine treated rats after 24 hr at dose of 1 g/kg intraperitoneally
Rattus norvegicus [29] = assay: Concentration of C24:2 ceramide in plasma of D-galactosamine treated rats after 18 hr at dose of 1 g/kg intraperitoneally
Rattus norvegicus [30] = assay: Concentration of C20:0 ceramide in plasma of D-galactosamine treated rats after 24 hr at dose of 1 g/kg intraperitoneally
Rattus norvegicus [31] = assay: Plasma GOT level was observed after 18 hr of D-galactosamine administration at 1 g/kg intraperitoneally
Rattus norvegicus [32] = assay: Concentration of C24:2 ceramide in liver of D-galactosamine treated rats after 18 hr at dose of 1 g/kg intraperitoneally
Rattus norvegicus [33] = assay: Concentration of C20:0 ceramide in liver of D-galactosamine treated rats after 18 h at dose of 1 g/kg intraperitoneally
Rattus norvegicus [34] = assay: Concentration of C16:0 ceramide in liver of D-galactosamine treated rats after 18 hr at dose of 1 g/kg intraperitoneally
Rattus norvegicus [35] = assay: Concentration of C16:0 ceramide in liver of D-galactosamine treated rats after 24 hr at dose of 1 g/kg intraperitoneally
Rattus norvegicus [36] = assay: Concentration of C22:2 ceramide in liver of D-galactosamine treated rats after 24 hr at dose of 1 g/kg intraperitoneally

N[C@H]1C(O)O[C@H](CO)[C@@H](O)[C@@H]1O (stereo partly specified) [GLUCOSAMINE]
Activity (Rattus norvegicus [1]): 2.57 nmol/g tissue | Activity (Rattus norvegicus [2]): 11.1 nmol/g tissue | Activity (Rattus norvegicus [3]): 173.7 nmol/g tissue | Activity (Rattus norvegicus [4]): 18480 Karmen | Activity (Rattus norvegicus [5]): 1.06 nmol/g tissue | Activity (Rattus norvegicus [6]): 37.8 nmol/g tissue | Activity (Rattus norvegicus [7]): 7280 Karmen | Activity (Rattus norvegicus [8]): 6.31 nmol/g tissue | Activity (Rattus norvegicus [9]): 5.78 nmol/g tissue | Activity (Rattus norvegicus [10]): 26.31 nmol/g tissue | Activity (Rattus norvegicus [11]): 0.18 nmol/g tissue | Activity (Rattus norvegicus [12]): 5.6 nmol/g tissue | Activity (Rattus norvegicus [13]): 166.3 nmol/g tissue | Activity (Rattus norvegicus [14]): 11.5 nmol/g tissue | Activity (Rattus norvegicus [15]): 1208 Karmen | Activity (Rattus norvegicus [16]): 35.6 nmol/g tissue | Activity (Rattus norvegicus [17]): 2.33 nmol/g tissue | Activity (Rattus norvegicus [18]): 5.45 nmol/g tissue | Activity (Rattus norvegicus [19]): 4.6 nmol/g tissue | Activity (Rattus norvegicus [20]): 0.9 nmol/g tissue | Activity (Rattus norvegicus [21]): 59.6 nmol/g tissue | Activity (Rattus norvegicus [22]): 12.4 nmol/g tissue | Activity (Rattus norvegicus [23]): 13.83 nmol/g tissue | Activity (Rattus norvegicus [24]): 4.8 nmol/g tissue | Activity (Rattus norvegicus [25]): 67.2 nmol/g tissue | Activity (Rattus norvegicus [26]): 7.1 nmol/g tissue | Activity (Rattus norvegicus [27]): 0.42 nmol/g tissue | Activity (Rattus norvegicus [28]): 3.13 nmol/g tissue | Activity (Rattus norvegicus [29]): 0.98 nmol/g tissue and 1.94 nmol/g tissue | Activity (Rattus norvegicus [30]): 0.65 nmol/g tissue | Activity (Rattus norvegicus [31]): 2516 Karmen | Activity (Rattus norvegicus [32]): 12.4 nmol/g tissue | Activity (Rattus norvegicus [33]): 3.9 nmol/g tissue | Activity (Rattus norvegicus [34]): 43.9 nmol/g tissue | Activity (Rattus norvegicus [35]): 36.2 nmol/g tissue | Activity (Rattus norvegicus [36]): 7 nmol/g tissue
